ChEMBL document CHEMBL1130529, “Synthesis and biological activity of 1,2,3,4-tetrahydroquinoline and 3,4-(1H)-dihydroquinolin-2-one analogs of retinoic acid” (Bioorg Med Chem Lett, 1997)

Tests used:
[1] = target: T1, Retinoic acid receptor alpha (Homo sapiens, UniProt P10276); experiment: Binding affinity for Retinoic acid receptor alpha
T1 sequence (P10276 whole entry): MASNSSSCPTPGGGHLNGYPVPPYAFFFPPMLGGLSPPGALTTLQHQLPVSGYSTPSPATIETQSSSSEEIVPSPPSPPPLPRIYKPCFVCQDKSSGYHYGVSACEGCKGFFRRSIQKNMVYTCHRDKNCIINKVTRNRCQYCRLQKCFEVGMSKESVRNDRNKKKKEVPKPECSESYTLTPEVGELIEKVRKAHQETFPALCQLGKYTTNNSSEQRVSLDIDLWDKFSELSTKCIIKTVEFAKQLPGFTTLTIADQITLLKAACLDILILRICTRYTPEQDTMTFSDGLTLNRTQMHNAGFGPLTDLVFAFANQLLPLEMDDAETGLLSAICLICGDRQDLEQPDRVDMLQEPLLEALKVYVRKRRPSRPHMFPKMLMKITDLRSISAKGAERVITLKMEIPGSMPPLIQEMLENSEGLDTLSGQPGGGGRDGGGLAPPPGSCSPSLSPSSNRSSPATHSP

[2] = target: T2, Retinoic acid receptor beta (Homo sapiens, UniProt P10826); experiment: Transactivation potency for Retinoic acid receptor beta
T2 sequence (P10826 whole entry): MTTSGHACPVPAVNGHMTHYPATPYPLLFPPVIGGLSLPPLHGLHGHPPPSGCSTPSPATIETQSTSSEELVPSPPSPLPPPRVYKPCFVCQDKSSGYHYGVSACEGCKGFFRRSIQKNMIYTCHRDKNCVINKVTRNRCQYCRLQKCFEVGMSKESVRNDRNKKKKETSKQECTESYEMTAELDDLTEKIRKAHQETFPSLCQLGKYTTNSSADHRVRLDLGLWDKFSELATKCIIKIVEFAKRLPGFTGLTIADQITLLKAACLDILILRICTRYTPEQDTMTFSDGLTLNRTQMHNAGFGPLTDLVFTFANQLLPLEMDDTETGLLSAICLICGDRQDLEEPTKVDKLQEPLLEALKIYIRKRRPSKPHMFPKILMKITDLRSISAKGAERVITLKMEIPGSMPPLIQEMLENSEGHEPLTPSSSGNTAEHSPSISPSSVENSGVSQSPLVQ

[3] = target: T3, Retinoic acid receptor gamma (Homo sapiens, UniProt P13631); experiment: Transactivation potency for Retinoic acid receptor gamma
T3 sequence (P13631 whole entry): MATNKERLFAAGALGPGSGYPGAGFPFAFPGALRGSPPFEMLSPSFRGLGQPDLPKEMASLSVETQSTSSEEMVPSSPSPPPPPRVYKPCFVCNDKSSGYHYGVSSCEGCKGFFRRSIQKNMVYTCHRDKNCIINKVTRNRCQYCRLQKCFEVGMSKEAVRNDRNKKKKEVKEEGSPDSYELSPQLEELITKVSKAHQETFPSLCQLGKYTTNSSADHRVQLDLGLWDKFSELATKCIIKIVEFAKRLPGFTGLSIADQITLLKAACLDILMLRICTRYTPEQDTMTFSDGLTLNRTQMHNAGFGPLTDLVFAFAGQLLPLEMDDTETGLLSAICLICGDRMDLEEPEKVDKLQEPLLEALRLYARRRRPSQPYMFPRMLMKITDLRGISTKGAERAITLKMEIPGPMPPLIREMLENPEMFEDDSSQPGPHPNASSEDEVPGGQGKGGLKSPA

[4] = target: T3, Retinoic acid receptor gamma; experiment: Binding affinity for Retinoic acid receptor gamma
[5] = target: T2, Retinoic acid receptor beta; experiment: Binding affinity for Retinoic acid receptor beta
[6] = target: T1, Retinoic acid receptor alpha; experiment: Transactivation potency for Retinoic acid receptor alpha
[7] = target: T4, Ornithine decarboxylase (Mus musculus) (UniProt P00860); experiment: Inhibition of ornithine decarboxylase activity in hairless mouse skin in vivo; assay type: organism-based
T4 sequence (whole entry): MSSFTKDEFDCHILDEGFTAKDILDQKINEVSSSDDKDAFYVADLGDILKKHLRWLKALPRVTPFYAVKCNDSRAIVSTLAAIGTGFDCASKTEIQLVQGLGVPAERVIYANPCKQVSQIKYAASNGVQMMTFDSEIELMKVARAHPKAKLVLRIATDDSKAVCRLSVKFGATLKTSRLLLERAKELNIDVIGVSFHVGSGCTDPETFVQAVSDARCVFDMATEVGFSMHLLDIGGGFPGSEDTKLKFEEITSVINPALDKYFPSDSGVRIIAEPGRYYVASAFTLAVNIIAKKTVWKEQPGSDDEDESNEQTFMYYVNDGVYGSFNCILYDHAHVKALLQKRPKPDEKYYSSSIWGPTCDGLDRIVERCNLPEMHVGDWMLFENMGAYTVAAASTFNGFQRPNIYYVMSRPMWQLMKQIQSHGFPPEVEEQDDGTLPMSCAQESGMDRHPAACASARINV

[8] = target: T1, Retinoic acid receptor alpha; experiment: Transactivation potency for Retinoic acid receptor alpha; Not active
[9] = target: T2, Retinoic acid receptor beta; experiment: Transactivation potency for Retinoic acid receptor beta; Not active
[10] = target: T3, Retinoic acid receptor gamma; experiment: Transactivation potency for Retinoic acid receptor gamma; Not active
[11] = target: T1, Retinoic acid receptor alpha; experiment: Binding affinity for Retinoic acid receptor alpha; Not active

CC1(C)CCNc2ccc(C#Cc3ccc(C(=O)O)cc3)cc21
Kd [1]: 5200 nM
EC50 [2]: 170 nM
EC50 [3]: 130 nM
Kd [4]: 2420 nM
Kd [5]: 714 nM
EC50 [6]: 2300 nM

CCOC(=O)c1ccc(C#Cc2ccc3c(c2)C(C)(C)CCN3C(C)C)cc1
IC60 [7]: 0.4 nM

CCOC(=O)c1ccc(C#Cc2ccc3c(c2)NCCC3(C)C)cc1
IC60 [7]: 7 nM

CC1(C)CC(=O)Nc2cc(C#Cc3ccc(C(=O)O)cc3)ccc21
EC50 [8]: Not Active
Kd [1]: > 1000 nM
EC50 [2]: 1000 nM
EC50 [3]: 200 nM
Kd [4]: > 1000 nM
Kd [5]: > 1000 nM

CC1=C(/C=C/C(C)=C/C=C/C(C)=C/C(=O)O)C(C)(C)CCC1
IC60 [7]: 1.4 nM

CCCCCCCN1CCC(C)(C)c2cc(C#Cc3ccc(C(=O)OCC)cc3)ccc21
IC60 [7]: > 300 nM

CC(C)N1C(=O)CC(C)(C)c2cc(C#Cc3ccc(C(=O)O)cc3)ccc21
EC50 [8]: Not Active
Kd [1]: 136 nM
EC50 [2]: 4 nM
EC50 [3]: 4 nM
Kd [4]: 17 nM
Kd [5]: 17 nM

CCOC(=O)c1ccc(C#Cc2ccc3c(c2)NC(=O)CC3(C)C)cc1
IC60 [7]: > 300 nM

CCOC(=O)c1ccc(C#Cc2ccc3c(c2)N(C(C)C)C(=O)CC3(C)C)cc1
IC60 [7]: 2.9 nM

CCOC(=O)c1ccc(C#Cc2ccc3c(c2)C(C)(C)CCN3)cc1
IC60 [7]: 5 nM

CC(C)N1CCC(C)(C)c2cc(C#Cc3ccc(C(=O)O)cc3)ccc21
EC50 [8]: Not Active
Kd [1]: 627 nM
EC50 [2]: 10 nM
EC50 [3]: 6 nM
Kd [4]: 72 nM
Kd [5]: 60 nM

CC(C)N1CCC(C)(C)c2ccc(C#Cc3ccc(C(=O)O)cc3)cc21
EC50 ([8]; read-out: EC50): 17 nM
Kd [1]: 52 nM
EC50 [2]: 3 nM
EC50 [3]: 3 nM
Kd [4]: 52 nM
Kd [5]: 18 nM

CCOC(=O)c1ccc(C#Cc2ccc3c(c2)C(C)(C)CC(=O)N3)cc1
IC60 [7]: > 300 nM

CC1(C)CC(=O)Nc2ccc(C#Cc3ccc(C(=O)O)cc3)cc21
EC50 [8]: Not Active
Kd [1]: > 1000 nM
EC50 [9]: Not Active
EC50 [10]: Not Active
Kd [4]: > 1000 nM
Kd [5]: > 1000 nM

CCOC(=O)c1ccc(C#Cc2ccc3c(c2)N(C(C)C)CCC3(C)C)cc1
IC60 [7]: < 0.1 nM

CCCCCCCN1CCC(C)(C)c2cc(C#Cc3ccc(C(=O)O)cc3)ccc21
EC50 [8]: Not Active
Kd [1]: > 1000 nM
EC50 [2]: 280 nM
EC50 [3]: 260 nM
Kd [4]: > 1000 nM
Kd [5]: > 1000 nM

CC(C)N1C(=O)CC(C)(C)c2ccc(C#Cc3ccc(C(=O)O)cc3)cc21
EC50 [8]: Not Active
Kd [1]: 58 nM
EC50 [2]: 4 nM
EC50 [3]: 20 nM
Kd [4]: 23 nM
Kd [5]: 18 nM

CC1(C)CCNc2cc(C#Cc3ccc(C(=O)O)cc3)ccc21
Kd [11]: Not Active
EC50 [8]: Not Active
EC50 [2]: 36 nM
EC50 [3]: 54 nM
Kd [4]: 233 nM
Kd [5]: 211 nM

CCOC(=O)c1ccc(C#Cc2ccc3c(c2)C(C)(C)CC(=O)N3C(C)C)cc1
IC60 [7]: 6 nM

CCOC(=O)c1ccc(/C=C(\C)c2ccc3c(c2)C(C)(C)CCC3(C)C)cc1
IC60 [7]: 0.33 nM
